# According to ChEMBL document CHEMBL4316614, “Design, synthesis and biological evaluation of 1,4-dihydroxyanthraquinone derivatives as anticancer agents” (Bioorg Med Chem Lett, 2019):
# Calls of active or inactive are those of the source. The rule behind the calls is not given here.
# Experiments:
# DNA topoisomerase II [1] = biological target: T1, DNA topoisomerase II (Homo sapiens, UniProt P11388+Q02880); test: Inhibition of topoisomerase 2 in human MCF7 cells assessed as reduction in cell growth measured after 72 hrs by MTT assay; assay type: cell-based
# DNA topoisomerase II [2] = biological target: T1, DNA topoisomerase II; test: Inhibition of topoisomerase 2 in human CNE1 cells assessed as reduction in cell growth measured after 72 hrs by MTT assay; assay type: cell-based
# DNA topoisomerase II [3] = biological target: T1, DNA topoisomerase II; test: Inhibition of topoisomerase 2 in human A549 cells assessed as reduction in cell growth measured after 72 hrs by MTT assay; assay type: cell-based
# L02 = test: Cytotoxicity against human L02 cells assessed as inhibition of cell growth measured after 72 hrs by MTT assay; assay type: cell-based; conditions: L02, 72 h
# DNA topoisomerase II [4] = biological target: T1, DNA topoisomerase II; test: Inhibition of topoisomerase 2 in human MDA-MB-231 cells assessed as reduction in cell growth measured after 72 hrs by MTT assay; assay type: cell-based
# DNA topoisomerase II [5] = biological target: T1, DNA topoisomerase II; test: Inhibition of topoisomerase 2 in human HepG2 cells assessed as reduction in cell growth measured after 72 hrs by MTT assay; assay type: cell-based
# DNA topoisomerase II [6] = biological target: T1, DNA topoisomerase II; test: Inhibition of topoisomerase 2 in human HeLa cells assessed as reduction in cell growth measured after 72 hrs by MTT assay; assay type: cell-based
# HepG2 [7] = test: Induction of apoptosis in human HepG2 cells assessed as apoptotic cells at 8 uM measured after 48 hrs by Annexin V-APC staining based flow cytometry (reference value: 5.37%); assay type: functional
# HepG2 [8] = test: Induction of apoptosis in human HepG2 cells assessed as cell shrinkage at 4 to 16 uM measured after 48 hrs by Hoechst 33342 staining based fluorescence microscopic analysis; assay type: functional
# HepG2 [9] = test: Induction of apoptosis in human HepG2 cells assessed as apoptotic cells at 4 uM measured after 48 hrs by Annexin V-APC staining based flow cytometry (reference value: 5.37%); assay type: functional
# HepG2 [10] = test: Induction of morphological changes in human HepG2 cells assessed as appearance of foamy nucleus at 2 to 16 uM by confocal microscopic analysis; assay type: functional, cell-based
# HepG2 [11] = test: Induction of apoptosis in human HepG2 cells measured after 48 hrs by Annexin V-APC staining based flow cytometry; assay type: functional, cell-based
# [12] = Drug uptake in cytoplasm of human HepG2 cells at 2 to 16 uM by confocal microscopic analysis; assay type: ADME, subcellular; conditions: hepg2, 16 µM
# HepG2 [13] = test: Induction of apoptosis in human HepG2 cells assessed as apoptotic cells at 16 uM measured after 48 hrs by Annexin V-APC staining based flow cytometry (reference value: 5.37%); assay type: functional
# HepG2 [14] = test: Induction of apoptosis in human HepG2 cells assessed as apoptotic cells at 32 uM measured after 48 hrs by Annexin V-APC staining based flow cytometry (reference value: 5.37%); assay type: functional
# HepG2 [15] = test: Induction of morphological changes in human HepG2 cells assessed as nuclear deformation at 2 to 16 uM by confocal microscopic analysis; assay type: functional, cell-based
# HepG2 [16] = test: Induction of morphological changes in human HepG2 cells assessed as nuclear shrinkage at 2 to 16 uM by confocal microscopic analysis; assay type: functional, cell-based
# [17] = Drug uptake in nucleus of human HepG2 cells at 2 to 16 uM by confocal microscopic analysis; assay type: ADME, subcellular; conditions: hepg2, 16 µM
# HepG2 [18] = test: Induction of apoptosis in human HepG2 cells assessed as formation of granular apoptotic body formation at 4 to 16 uM measured after 48 hrs by Hoechst 33342 staining based fluorescence microscopic analysis; assay type: functional, cell-based
Compound,IC50 (DNA topoisomerase II [1]) [µM],IC50 (DNA topoisomerase II [2]) [µM],IC50 (DNA topoisomerase II [3]) [µM],IC50 (DNA topoisomerase II [4]) [µM],IC50 (DNA topoisomerase II [5]) [µM],IC50 (DNA topoisomerase II [6]) [µM],Drug uptake [12],Drug uptake [17],IC50 (L02) [µM],Activity (HepG2 [7]) [%],Activity (HepG2 [8]),Activity (HepG2 [9]) [%],Activity (HepG2 [10]),Activity (HepG2 [11]),Activity (HepG2 [13]) [%],Activity (HepG2 [14]) [%],Activity (HepG2 [15]),Activity (HepG2 [16]),Activity (HepG2 [18])
COc1ccc(C(O)c2cc(O)c3c(c2O)C(=O)c2ccccc2C3=O)cc1Br (centres undefined),45.6,16.7,24.1,43.7,12.8,29.8,,,> 50,,,,,,,,,,
COc1cccc2c1C(=O)c1c(O)c3c(c(O)c1C2=O)C[C@@](O)(C(=O)CO)C[C@@H]3O[C@H]1C[C@H](N)[C@H](O)[C@H](C)O1 [DOXORUBICIN],1.5,1.2,2.3,3.8,2.6,3.3,,,3.5,,,,,,,,,,
CSc1ccc(C(c2cc(O)c3c(c2O)C(=O)c2ccccc2C3=O)N(CCCl)CCCl)cc1 (centres undefined),39.3,15.4,> 50,41.4,20.6,> 50,,,> 50,,,,,,,,,,
O=C1c2ccccc2C(=O)c2c(O)c(C(c3ccc(OC(F)(F)F)cc3)N(CCCl)CCCl)cc(O)c21 (centres undefined),42.8,11.3,> 50,34.8,> 50,> 50,,,> 50,,,,,,,,,,
O=C1c2ccccc2C(=O)c2c(O)c(C(O)c3ccsc3)cc(O)c21 (centres undefined),> 50,> 50,> 50,> 50,> 50,> 50,,,> 50,,,,,,,,,,
O=C1c2ccccc2C(=O)c2c(O)c(C(O)c3ccc(OC(F)(F)F)cc3)cc(O)c21 (centres undefined),30.5,13.7,22.3,39.5,26.5,32,,,> 50,,,,,,,,,,
O=C1c2ccccc2C(=O)c2c(O)c(C(c3ccc(C(F)(F)F)cc3)N(CCCl)CCCl)cc(O)c21 (centres undefined),> 50,16.1,> 50,> 50,> 50,> 50,,,> 50,,,,,,,,,,
O=C1c2ccccc2C(=O)c2c(O)c(C(c3ccsc3)N(CCCl)CCCl)cc(O)c21 (centres undefined),22.5,23.1,21.9,22.4,13.7,19.3,,,35.4,,,,,,,,,,
Cc1ccc(C(O)c2cc(O)c3c(c2O)C(=O)c2ccccc2C3=O)s1 (centres undefined),> 50,23.6,35.8,> 50,44.7,42.3,,,> 50,,,,,,,,,,
O=C1c2ccccc2C(=O)c2c(O)c(C(O)c3cc(Br)cs3)cc(O)c21 (centres undefined),17.5,19.7,41.5,33.3,23.9,18.4,,,> 50,,,,,,,,,,

# Second part, led by results:
IC50 (DNA topoisomerase II [1]) [µM],IC50 (DNA topoisomerase II [2]) [µM],IC50 (DNA topoisomerase II [3]) [µM],IC50 (DNA topoisomerase II [4]) [µM],IC50 (DNA topoisomerase II [5]) [µM],IC50 (DNA topoisomerase II [6]) [µM],Drug uptake [12],Drug uptake [17],Compound,IC50 (L02) [µM],Activity (HepG2 [7]) [%],Activity (HepG2 [8]),Activity (HepG2 [9]) [%],Activity (HepG2 [10]),Activity (HepG2 [11]),Activity (HepG2 [13]) [%],Activity (HepG2 [14]) [%],Activity (HepG2 [15]),Activity (HepG2 [16]),Activity (HepG2 [18])
> 50,16.6,28.9,45,37.9,36.2,,,O=C1c2ccccc2C(=O)c2c(O)c(C(O)c3cccs3)cc(O)c21 (centres undefined),> 50,,,,,,,,,,
29.3,17.75,33,47.2,24.4,21.2,,,O=C1c2ccccc2C(=O)c2c(O)c(C(O)c3ccc(Cl)s3)cc(O)c21 (centres undefined),> 50,,,,,,,,,,
39.4,14.4,23,43.9,25.1,48.1,,,O=C1c2ccccc2C(=O)c2c(O)c(C(O)c3ccc(Br)s3)cc(O)c21 (centres undefined),> 50,,,,,,,,,,
28.6,12.6,17.6,26.9,12.8,14.9,,,N#Cc1ccc(C(O)c2cc(O)c3c(c2O)C(=O)c2ccccc2C3=O)cc1 (centres undefined),> 50,,,,,,,,,,
28.4,12.7,17.8,34.6,12.5,18.9,Active,Active,O=C1c2ccccc2C(=O)c2c(O)c(C(O)c3ccc(Cl)cc3Cl)cc(O)c21 (centres undefined),> 50,11.56,Active,7.38,Active,Dose-dependent effect,32.87,40.13,Active,Active,Active
5.7,12.5,16,7.8,6.2,6.7,,,CC(C)=CC[C@@H](O)C1=CC(=O)c2c(O)ccc(O)c2C1=O [SHIKONIN],13,,,,,,,,,,
27.4,13.7,23.3,38.1,14.9,20.7,,,O=C1c2ccccc2C(=O)c2c(O)c(C(O)c3ccc(C(F)(F)F)cc3)cc(O)c21 (centres undefined),> 50,,,,,,,,,,
> 50,> 50,> 50,> 50,> 50,> 50,,,COc1ccc(C(O)c2cc(O)c3c(c2O)C(=O)c2ccccc2C3=O)cc1OC (centres undefined),> 50,,,,,,,,,,
> 50,> 50,> 50,> 50,> 50,> 50,,,CCOc1ccc(C(O)c2cc(O)c3c(c2O)C(=O)c2ccccc2C3=O)cc1 (centres undefined),> 50,,,,,,,,,,
> 200,> 200,> 200,> 200,> 200,> 200,,,O=C1c2ccccc2C(=O)c2c(O)ccc(O)c21 [QUINIZARIN],> 200,,,,,,,,,,
> 50,> 50,> 50,> 50,> 50,> 50,,,CSc1ccc(C(O)c2cc(O)c3c(c2O)C(=O)c2ccccc2C3=O)cc1 (centres undefined),> 50,,,,,,,,,,
